Data taken from ChEMBL document CHEMBL4706545, “Antiproliferative effect of mitochondria-targeting allobetulin 1,2,3-triazolium salt derivatives and their mechanism of inducing apoptosis of cancer cells” (Eur J Med Chem, 2020).

Assays:
HepG2 = test: Cytotoxicity against human HepG2 cells assessed as reduction in cell viability incubated for 48 hrs by MTT assay; assay type: functional, cell-based; details: HepG2, 48 h
L02 = test: Cytotoxicity against human HL7702 cells assessed as reduction in cell viability incubated for 48 hrs by MTT assay; assay type: ADME, cell-based; details: L02, 48 h
SGC-7901 = test: Cytotoxicity against human SGC-7901 cells assessed as reduction in cell viability incubated for 48 hrs by MTT assay; assay type: functional, cell-based; details: SGC-7901, 48 h
HeLa = test: Cytotoxicity against human HeLa cells assessed as reduction in cell viability incubated for 48 hrs by MTT assay; assay type: functional, cell-based
ECa-109 cell line = test: Cytotoxicity against human ECa-109 cells assessed as reduction in cell viability incubated for 48 hrs by MTT assay; assay type: functional, cell-based; details: ECa-109, 48 h

## CC1(C)CC[C@]23CC[C@]4(C)[C@H](CC[C@@H]5[C@@]6(C)Cc7nnn(Cc8cccc(Cl)c8)c7C(C)(C)[C@@H]6CC[C@]54C)[C@H]2[C@H]1OC3
HepG2
  IC50: 30.7 µM
L02
  IC50: 26.3 µM
SGC-7901
  IC50: 31.5 µM
HeLa
  IC50: 34.4 µM
ECa-109 cell line
  IC50: 36.5 µM

## C[n+]1nn(Cc2ccc(Cl)c(Cl)c2)c2c1C[C@]1(C)[C@H]3CC[C@@H]4[C@H]5[C@H]6OC[C@@]5(CCC6(C)C)CC[C@@]4(C)[C@]3(C)CC[C@H]1C2(C)C
HepG2
  IC50: 2.96 µM
L02
  IC50: 2.29 µM
SGC-7901
  IC50: 2.99 µM
HeLa
  IC50: 2.83 µM
ECa-109 cell line
  IC50: 3.03 µM

## COc1cccc(Cn2n[n+](C)c3c2C(C)(C)[C@@H]2CC[C@]4(C)[C@H](CC[C@@H]5[C@H]6[C@H]7OC[C@@]6(CCC7(C)C)CC[C@]54C)[C@@]2(C)C3)c1
HepG2
  IC50: 2.18 µM
L02
  IC50: 1.72 µM
SGC-7901
  IC50: 1.81 µM
HeLa
  IC50: 2.33 µM
ECa-109 cell line
  IC50: 2.81 µM

## COc1ccccc1CCn1n[n+](C)c2c1C(C)(C)[C@@H]1CC[C@]3(C)[C@H](CC[C@@H]4[C@H]5[C@H]6OC[C@@]5(CCC6(C)C)CC[C@]43C)[C@@]1(C)C2
HepG2
  IC50: 1.55 µM
L02
  IC50: 1.4 µM
SGC-7901
  IC50: 1.24 µM
HeLa
  IC50: 1.67 µM
ECa-109 cell line
  IC50: 1.67 µM

## C[n+]1nn(Cc2ccc(Cl)cc2)c2c1C[C@]1(C)[C@H]3CC[C@@H]4[C@H]5[C@H]6OC[C@@]5(CCC6(C)C)CC[C@@]4(C)[C@]3(C)CC[C@H]1C2(C)C
HepG2
  IC50: 1.73 µM
L02
  IC50: 1.62 µM
SGC-7901
  IC50: 2.68 µM
HeLa
  IC50: 2.45 µM
ECa-109 cell line
  IC50: 2.16 µM

## COc1cccc(CCn2nnc3c2C(C)(C)[C@@H]2CC[C@]4(C)[C@H](CC[C@@H]5[C@H]6[C@H]7OC[C@@]6(CCC7(C)C)CC[C@]54C)[C@@]2(C)C3)c1
HepG2
  IC50: 31.9 µM
L02
  IC50: 20.9 µM
SGC-7901
  IC50: 39.8 µM
HeLa
  IC50: 23.6 µM
ECa-109 cell line
  IC50: 25.5 µM

## CC1(C)CC[C@]23CC[C@]4(C)[C@H](CC[C@@H]5[C@@]6(C)Cc7nnn(Cc8ccccc8Cl)c7C(C)(C)[C@@H]6CC[C@]54C)[C@H]2[C@H]1OC3
HepG2
  IC50: 56.1 µM
L02
  IC50: 40.5 µM
SGC-7901
  IC50: 49.9 µM
HeLa
  IC50: 41.3 µM
ECa-109 cell line
  IC50: 58.9 µM

## CCCCCCCCn1n[n+](C)c2c1C(C)(C)[C@@H]1CC[C@]3(C)[C@H](CC[C@@H]4[C@H]5[C@H]6OC[C@@]5(CCC6(C)C)CC[C@]43C)[C@@]1(C)C2
HepG2
  IC50: 2.01 µM
L02
  IC50: 1.34 µM
SGC-7901
  IC50: 2.18 µM
HeLa
  IC50: 2.55 µM
ECa-109 cell line
  IC50: 3 µM

## C[n+]1nn(Cc2ccccc2F)c2c1C[C@]1(C)[C@H]3CC[C@@H]4[C@H]5[C@H]6OC[C@@]5(CCC6(C)C)CC[C@@]4(C)[C@]3(C)CC[C@H]1C2(C)C
HepG2
  IC50: 2.99 µM
L02
  IC50: 1.68 µM
SGC-7901
  IC50: 2.56 µM
HeLa
  IC50: 2.42 µM
ECa-109 cell line
  IC50: 3.08 µM

## CCCCn1nnc2c1C(C)(C)[C@@H]1CC[C@]3(C)[C@H](CC[C@@H]4[C@H]5[C@H]6OC[C@@]5(CCC6(C)C)CC[C@]43C)[C@@]1(C)C2
HepG2
  IC50: 10.7 µM
L02
  IC50: 7.86 µM
SGC-7901
  IC50: 6.61 µM
HeLa
  IC50: 6.26 µM
ECa-109 cell line
  IC50: 10.5 µM

## COC(Cn1nnc2c1C(C)(C)[C@@H]1CC[C@]3(C)[C@H](CC[C@@H]4[C@H]5[C@H]6OC[C@@]5(CCC6(C)C)CC[C@]43C)[C@@]1(C)C2)OC
HepG2
  IC50: > 80 µM
L02
  IC50: > 80 µM
SGC-7901
  IC50: > 80 µM
HeLa
  IC50: > 80 µM
ECa-109 cell line
  IC50: > 80 µM

## CC1(C)CC[C@]23CC[C@]4(C)[C@H](CC[C@@H]5[C@@]6(C)Cc7nnn(Cc8ccccc8)c7C(C)(C)[C@@H]6CC[C@]54C)[C@H]2[C@H]1OC3
HepG2
  IC50: 59.4 µM
L02
  IC50: 38.5 µM
SGC-7901
  IC50: 55.7 µM
HeLa
  IC50: > 80 µM
ECa-109 cell line
  IC50: 53.2 µM

## CC1(C)CC[C@]23CC[C@]4(C)[C@H](CC[C@@H]5[C@@]6(C)Cc7nnn(Cc8ccc(Cl)c(Cl)c8)c7C(C)(C)[C@@H]6CC[C@]54C)[C@H]2[C@H]1OC3
HepG2
  IC50: 53.9 µM
L02
  IC50: 35.5 µM
SGC-7901
  IC50: 44.5 µM
HeLa
  IC50: 32.6 µM
ECa-109 cell line
  IC50: 43.6 µM

## CC1(C)CC[C@]23CC[C@]4(C)[C@H](CC[C@@H]5[C@@]6(C)Cc7nnn(Cc8ccc(F)cc8F)c7C(C)(C)[C@@H]6CC[C@]54C)[C@H]2[C@H]1OC3
HepG2
  IC50: 6.56 µM
L02
  IC50: 7.47 µM
SGC-7901
  IC50: 9.02 µM
HeLa
  IC50: 10.2 µM
ECa-109 cell line
  IC50: 10.9 µM

## CC1(C)CC[C@]23CC[C@]4(C)[C@H](CC[C@@H]5[C@@]6(C)Cc7nnn(CC(c8ccccc8)c8ccccc8)c7C(C)(C)[C@@H]6CC[C@]54C)[C@H]2[C@H]1OC3
HepG2
  IC50: 53.9 µM
L02
  IC50: 40.7 µM
SGC-7901
  IC50: 47.9 µM
HeLa
  IC50: 44.1 µM
ECa-109 cell line
  IC50: 48.5 µM

## C[n+]1nn(CC(c2ccccc2)c2ccccc2)c2c1C[C@]1(C)[C@H]3CC[C@@H]4[C@H]5[C@H]6OC[C@@]5(CCC6(C)C)CC[C@@]4(C)[C@]3(C)CC[C@H]1C2(C)C
HepG2
  IC50: 2.96 µM
L02
  IC50: 1.61 µM
SGC-7901
  IC50: 2.18 µM
HeLa
  IC50: 2.67 µM
ECa-109 cell line
  IC50: 2.28 µM

## C[n+]1nn(Cc2cccc(Cl)c2)c2c1C[C@]1(C)[C@H]3CC[C@@H]4[C@H]5[C@H]6OC[C@@]5(CCC6(C)C)CC[C@@]4(C)[C@]3(C)CC[C@H]1C2(C)C
HepG2
  IC50: 2.67 µM
L02
  IC50: 1.89 µM
SGC-7901
  IC50: 2.41 µM
HeLa
  IC50: 2.07 µM
ECa-109 cell line
  IC50: 3.01 µM

## CCCCCCn1n[n+](C)c2c1C(C)(C)[C@@H]1CC[C@]3(C)[C@H](CC[C@@H]4[C@H]5[C@H]6OC[C@@]5(CCC6(C)C)CC[C@]43C)[C@@]1(C)C2
HepG2
  IC50: 1.93 µM
L02
  IC50: 1.33 µM
SGC-7901
  IC50: 1.65 µM
HeLa
  IC50: 2.45 µM
ECa-109 cell line
  IC50: 3.08 µM

## CC1(C)CC[C@]23CC[C@]4(C)[C@H](CC[C@@H]5[C@@]6(C)Cc7nnn(Cc8c(F)cccc8Cl)c7C(C)(C)[C@@H]6CC[C@]54C)[C@H]2[C@H]1OC3
HepG2
  IC50: 24.3 µM
L02
  IC50: 19.5 µM
SGC-7901
  IC50: 26.1 µM
HeLa
  IC50: 23.3 µM
ECa-109 cell line
  IC50: 27 µM

## CCCCn1n[n+](C)c2c1C(C)(C)[C@@H]1CC[C@]3(C)[C@H](CC[C@@H]4[C@H]5[C@H]6OC[C@@]5(CCC6(C)C)CC[C@]43C)[C@@]1(C)C2
HepG2
  IC50: 3.97 µM
L02
  IC50: 2.2 µM
SGC-7901
  IC50: 3.25 µM
HeLa
  IC50: 3.99 µM
ECa-109 cell line
  IC50: 5.14 µM

## CC1(C)CC[C@]23CC[C@]4(C)[C@H](CC[C@@H]5[C@@]6(C)Cc7nnn(CCc8c[nH]c9ccccc89)c7C(C)(C)[C@@H]6CC[C@]54C)[C@H]2[C@H]1OC3
HepG2
  IC50: 14.4 µM
L02
  IC50: 10.3 µM
SGC-7901
  IC50: 19.8 µM
HeLa
  IC50: 22.1 µM
ECa-109 cell line
  IC50: 18.2 µM

## COc1cc(Cn2n[n+](C)c3c2C(C)(C)[C@@H]2CC[C@]4(C)[C@H](CC[C@@H]5[C@H]6[C@H]7OC[C@@]6(CCC7(C)C)CC[C@]54C)[C@@]2(C)C3)cc(OC)c1OC
HepG2
  IC50: 3.04 µM
L02
  IC50: 3.8 µM
SGC-7901
  IC50: 5.56 µM
HeLa
  IC50: 3.8 µM
ECa-109 cell line
  IC50: 3.35 µM

## C[n+]1nn(Cc2ccccc2Cl)c2c1C[C@]1(C)[C@H]3CC[C@@H]4[C@H]5[C@H]6OC[C@@]5(CCC6(C)C)CC[C@@]4(C)[C@]3(C)CC[C@H]1C2(C)C
HepG2
  IC50: 3.03 µM
L02
  IC50: 1.3 µM
SGC-7901
  IC50: 2.24 µM
HeLa
  IC50: 2.71 µM
ECa-109 cell line
  IC50: 1.98 µM

## Cc1ccc(Cn2nnc3c2C(C)(C)[C@@H]2CC[C@]4(C)[C@H](CC[C@@H]5[C@H]6[C@H]7OC[C@@]6(CCC7(C)C)CC[C@]54C)[C@@]2(C)C3)cc1
HepG2
  IC50: 26.6 µM
L02
  IC50: 22.7 µM
SGC-7901
  IC50: 20.3 µM
HeLa
  IC50: 32.3 µM
ECa-109 cell line
  IC50: 34.8 µM

## C[n+]1nn(Cc2cccc(F)c2)c2c1C[C@]1(C)[C@H]3CC[C@@H]4[C@H]5[C@H]6OC[C@@]5(CCC6(C)C)CC[C@@]4(C)[C@]3(C)CC[C@H]1C2(C)C
HepG2
  IC50: 2.24 µM
L02
  IC50: 1.41 µM
SGC-7901
  IC50: 3.05 µM
HeLa
  IC50: 2.78 µM
ECa-109 cell line
  IC50: 3 µM

## CC1(C)CC[C@]23CC[C@]4(C)[C@H](CC[C@@H]5[C@@]6(C)Cc7nnn(Cc8ccc(F)cc8)c7C(C)(C)[C@@H]6CC[C@]54C)[C@H]2[C@H]1OC3
HepG2
  IC50: 47.7 µM
L02
  IC50: 42 µM
SGC-7901
  IC50: > 80 µM
HeLa
  IC50: > 80 µM
ECa-109 cell line
  IC50: 69 µM

## COc1ccc(CCn2n[n+](C)c3c2C(C)(C)[C@@H]2CC[C@]4(C)[C@H](CC[C@@H]5[C@H]6[C@H]7OC[C@@]6(CCC7(C)C)CC[C@]54C)[C@@]2(C)C3)cc1
HepG2
  IC50: 2.91 µM
L02
  IC50: 2.09 µM
SGC-7901
  IC50: 2.39 µM
HeLa
  IC50: 2.85 µM
ECa-109 cell line
  IC50: 1.97 µM

## COc1ccccc1Cn1nnc2c1C(C)(C)[C@@H]1CC[C@]3(C)[C@H](CC[C@@H]4[C@H]5[C@H]6OC[C@@]5(CCC6(C)C)CC[C@]43C)[C@@]1(C)C2
HepG2
  IC50: 46.7 µM
L02
  IC50: 38.4 µM
SGC-7901
  IC50: 53 µM
HeLa
  IC50: 41.9 µM
ECa-109 cell line
  IC50: 57.9 µM

## C[n+]1nn(Cc2ccccc2)c2c1C[C@]1(C)[C@H]3CC[C@@H]4[C@H]5[C@H]6OC[C@@]5(CCC6(C)C)CC[C@@]4(C)[C@]3(C)CC[C@H]1C2(C)C
HepG2
  IC50: 2.89 µM
L02
  IC50: 2 µM
SGC-7901
  IC50: 2.83 µM
HeLa
  IC50: 3.02 µM
ECa-109 cell line
  IC50: 3.29 µM

## COc1cccc(CCn2n[n+](C)c3c2C(C)(C)[C@@H]2CC[C@]4(C)[C@H](CC[C@@H]5[C@H]6[C@H]7OC[C@@]6(CCC7(C)C)CC[C@]54C)[C@@]2(C)C3)c1
HepG2
  IC50: 2.72 µM
L02
  IC50: 2.21 µM
SGC-7901
  IC50: 2.37 µM
HeLa
  IC50: 2.87 µM
ECa-109 cell line
  IC50: 2.06 µM
